US6867186B2, “Cell-permeable protein inhibitors of calpain” (New England Medical Center Hospital, priority 1997, dated 2005)
Read-outs that look alike come from different tables or passages of the source.

Columns and labels:
[1] = tested on: platelets; assay: cells; design: increase in P-selectin surface expression over unstimulated: dose or concentration left out as unconfirmed
Protocol: To determine whether S-TIPPEYIN could inhibit α-granule secretion in platelets, surface expression of P-selectin, which indicates α-granule secretion, was induced with the thrombin peptide SFLLR (SEQ ID NO:5) and analyzed by flow cytometry using an antibody against P-selectin. Blood from healthy volunteers was collected into sodium citrate (4% w/v) and centrifuged at 200×g for 10 minutes to prepare platelet-rich plasma (PRP), from which platelets were subsequently purified by gel filtration using a SEPHAROSE 2B column in PIPES buffer. Twenty μl of platelets (approximately 2×10^8 platelets/ml) were aliquoted into eppendorf tubes and one μl of S-TIPPEYIN, TIPPEYIN (lacking the signal peptide sequence), or S-TIPPEY-ala was added to achieve final concentrations of 6.25, 12.5, 25, 50, or 100 μM. The platelets were then incubated for 2 hours at 37° C. and subsequently exposed to either 1 μl PBS (unstimulated) or 1 μl of SFLLR (SEQ ID NO:5; stimulated) at the indicated concentration. After 30 seconds, a 7.5 μl aliquot was transferred to an eppendorf tube containing non-immune serum having antibodies that were conjugated to phycoerythrin. Following a 20 minute incubation at room temperature, the mixture was diluted with 1 ml of 2% paraformaldehyde and incubated at 4° C. for two hours. Antibody binding to platelet surface P-selectin was quantified using a FACSCAN flow cytometer (Becton Dickerson, San Jose, Calif.). Results were reported as the geometric mean of the relative fluorescence.
Platelets were pre-incubated with increasing concentrations of calpeptin, MDL, E64d, or DMSO (vehicle control) for ten minutes prior to stimulation with SFLLR.

[2] = tested on: platelets; assay: cells; assay type: cell-based; design: reduction in spreading on the glass surface: dose or concentration left out as unconfirmed
Protocol: Platelet activation on surfaces can be inhibited by […] or […] fusion proteins. […] The cellular area of spread platelets was determined by computer assisted image analysis using NIH Image 1.61. […] Percent inhibition of spreading was calculated from the increase in mean cell area for untreated and treated samples vs. unspread DMSO controls.

[3] = tested on: platelet rich plasma (PRP); assay: Platelet disk-to-sphere shape change after cold storage (ESC assay); assay type: cell-based; design: cold storage of PRP, extent of shape change (ESC): dose or concentration left out as unconfirmed
Protocol: Disk-to-sphere shape change was then assayed using the extent of shape change (ESC) assay (Holme et al., Transfusion 38:31-40, 1998). Briefly, samples of stored PRP were treated to induce disk-to-sphere shape change by cold storage and the addition of EDTA (to prevent aggregation). ADP was then added as a stimulus to measure ESC, and shape change was measured by determining light transmission through the sample. If the initial storage conditions caused considerable disk-to-sphere shape change, there would be little additional shape change upon addition of EDTA and ADP. Conversely, if the initial storage conditions caused little disk-to-sphere shape change, there would be considerable additional shape change upon addition of EDTA and ADP. The results of three experiments in which 24 hour storage of platelets at 4° C. was tested, in the presence and absence of calpastat, are shown in FIG. 12. The bracket labelled “fresh CDP” indicates the ESC that can be expected for fresh PRP in CPD, and the bracket marked “cold EDTA-treated PRP” indicates the ESC that can be expected for PRP subjected to cold storage in EDTA.
The day O control is an assay performed on fresh PRP with no cold storage in standard buffer.

[4] = tested on: calpain; assay: Ionophore-dependent calpain degradation of ABP and talin in platelets; assay type: cell-based; settings: 5, 8, or 10 minutes A23187
Protocol: To investigate whether calpastat inhibits calpain activity in platelets, the ionophore-dependent proteolysis of actin binding protein (ABP; about 280 kDa) and talin (about 240 kDa), both of which are substrates of both μ- and m-calpains, was examined as follows.
Platelets were pre-incubated with ZLLYCHN2, DMSO (solvent for ZLLY-CHN2), calpastat, or HEPES buffer (buffer for calpastat), and then treated with or without ionophore A23187 for 5, 8, or 10 minutes. The platelets were then gel-purified as described above. Whole cell lysates were prepared and fractionated by SDS polyacrylamide gel electrophoresis.

[5] = tested on: U937 cells; assay: Chemokine production of thapsigargin-stimulated U937 cells; assay type: cell-based; settings: 5 nM calpastat
Protocol: peptides can inhibit chemokine production in vitro. The effect of […] on chemokine production was tested as follows. […] The chemokines (MIP-1α, MIP-1P and RANTES) in the supernatants of U937 cells were assayed using QuantikineTM kits and as described by R&D Systems (Minneapolis, Minn.). […] Thus, […] be used to reduce production of inflammatory cytokines and treat inflammatory disorders.

[6] = tested on: U1 cells; assay: U1 cell viability (Trypan-blue exclusion); assay type: cell-based, human; settings: 5 μM calpastat, 96 hr; from 40% without
Protocol: U1 is a human promonocytic cell line that is chronically infected with HIV-1 and that constitutively expresses low levels of HIV-1. […] In the present experiment, 1×10^6 cells/ml were treated with various dosages of calpastat and incubated for one hour at 37° C. After incubation, various concentrations of Tpg were added to the calpastat-treated cells and aliquoted into a 24-well plate. To observe the stimulation of HIV-1 activity by Tpg, equivalent numbers of cells were treated with Tpg alone. The cells were then incubated at 37° C. for up to four days, and supernatants from the cell culture were collected each day to measure HIV-1 activity. The viability of cells treated with both Tpg and calpastat were determined each day by Trypan-blue exclusion test. The HIV-1 activity in the collected supernatants was determined by measuring the HIV-1 p24 core antigen protein by ELISA (Dupont Medical Products, Boston, Mass.) according to the manufacturer's instructions.
In another series of experiments, U1 cells, which are latently infected with HIV-1 provirus, were plated at 10^6 cells/well in 1 ml of medium and treated with varying concentrations of either calpastat (FIG. 7E) or calpeptin (benzyloxycarbonyl-leucyl-norleucinal) (FIG. 7F) for 45 minutes before addition of thapsigargin (4 nM final concentration). The viability of U1 monocytes was 90% at 48 hours of thapsigargin (4 nM) treatment, in the presence or absence of calpain inhibitors. After 48 hours of stimulation, HIV-1 p24 antigen levels were determined in 200 μl of tissue culture supernatant, using a p24 ELISA (DuPont). All assays were performed on triplicate cultures. Mean values and standard deviations are shown for each concentration of inhibitor (FIGS. 7E-7F).

Row | Substance | effect on SFLLR-induced P-selectin surface expression ([1]; pre-incubation, SFLLR stimulation) | effect on platelet spreading ([2]; spreading on glass) | IC50 ([2]; spreading on glass, NI=no inhibition, read-out: IC50, inhibition of platelet spreading) | cold storage of PRP, extent of shape change (ESC) ([3]; about 24 hours at 4° C., compared to EDTA) | protection against disk-to-sphere shape change ([3]; five days at 4° C.) | A23187-dependent calpain degradation of ABP and talin in platelets [4] | IC50 [1] | P-selectin surface expression induced by ionophore A23187 ([1]; A23187) | maximal inhibition of P-selectin surface expression ([1]; FIG. 3, SFLLR) | increase in P-selectin surface expression over unstimulated ([1]; SFLLR alone approximately 10-fold) | IC50 ([1]; read-out: half-maximal inhibition of P-selectin surface expression, FIG. 3, SFLLR) | IC50 [2] | inhibition of platelet spreading relative to calpastat-ala control ([2]; 100 μM, 30 minutes pre-incubation) | inhibition of platelet spreading relative to calpastat-ala control ([2]; 100 μM, 60 minutes pre-incubation) | platelets round and unspread on glass ([2]; 100 μM, 1.5 hours) | inhibition of platelet spreading relative to calpastat-ala control ([2]; 100 μM, 90 minutes pre-incubation) | reduction in spreading on the glass surface ([2]; 90 minutes at 37° C.) | reduction of production of chemokines (MIP-1α, MIP-1P and RANTES) [5] | viability of U1 cells in 4 nM Tpg [6]
1 | AAVALLPAVLLALLAPEKLAERADAAAPEAAELLEKKTGV [Calpastat-ala] | no effect | minimal inhibition | > 100 µM | – | – | – | – | – | – | – | – | – | – | – | – | – | – | – | –
2 | H-AAVALLPAVLLALLAPEKLGERDDTIPPEYRELLEKKTGV-OH [Calpastat] | – | – | – | significantly improved cold storage | considerable protection | inhibited | 30 µM | inhibited | 40 to 60 µM | 5 fold | 15 to 20 µM | 35 µM | 0% | 46% | Half | 80% | 70% | about one third | 90%
